Laboratory results taken from patent US20110200557A1, “NEW 2-AMIDOTHIADIAZOLE DERIVATIVES” (priority 2008, published 2011).

Biological target: S1P1 receptors (Homo sapiens, UniProt P21453)
Assay: 35S-GTPyS binding assay
Assay type: biochemical
Settings: membranes; compound 0.1 nM-10 μM; 0.1 nM 35S-GTPyS; 10 μM S1P as 100% maximum efficacy; 90 min at room temperature
Procedure: The effect of the compounds was measured using a 35S-GTPyS binding assay. Briefly, membranes were incubated in a buffer containing 20 mM HEPES pH 7.4, 100 mM NaCl, 10 mM MgCl2, 10 μM GDP, 50 μg/ml saponin and 0.2% fatty acid-free BSA at various concentrations (0.1 nM-10 μM) and 0.1 nM 35S-GTPyS. 10 μM S1P was used as 100% maximum efficacy. The assay was incubated for 90 min at room temperature with gentle mixing, and terminated by filtrating the reaction mixture through GF/C filter plates using the Manifold Filtration System. The filters were immediately washed with sodium phosphate pH 7.4 buffers. After drying the filter plate's scintillant liquid were added to each well and 35S-GTPyS binding was measured on a Trilux Scintillation Counter.

Chain of S1P1 receptors (P21453 whole entry): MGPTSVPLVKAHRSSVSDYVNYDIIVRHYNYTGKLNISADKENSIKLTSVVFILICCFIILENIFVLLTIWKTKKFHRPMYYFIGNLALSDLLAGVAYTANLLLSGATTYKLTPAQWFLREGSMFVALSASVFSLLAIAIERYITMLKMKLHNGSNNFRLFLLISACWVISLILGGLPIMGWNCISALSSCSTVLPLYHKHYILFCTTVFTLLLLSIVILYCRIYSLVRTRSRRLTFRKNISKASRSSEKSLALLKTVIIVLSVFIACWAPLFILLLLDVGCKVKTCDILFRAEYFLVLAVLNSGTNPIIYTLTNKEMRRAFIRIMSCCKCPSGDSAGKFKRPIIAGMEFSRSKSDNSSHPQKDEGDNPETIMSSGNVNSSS

| Structure (SMILES) | EC50 |
| --- | --- |
| CCCCN(C(=O)c1ccccc1Cl)c1nnc(-c2cc(C)c(O)c(C)c2)s1 [Example 8, N-butyl-2-chloro-N-[5-(4-hydroxy-3,5-dimethylphenyl)-1,3,4-thiadiazol-2-yl]benzamide] | 6.2 nM |
| CCCCN(C(=O)c1ccccc1OC)c1nnc(-c2cc(C)c(OC)c(C)c2)s1 [Example 19, N-butyl-2-methoxy-N-[5-(4-methoxy-3,5-dimethylphenyl)-1,3,4-thiadiazol-2-yl]benzamide] | 8.3 nM |
| CCCCN(C(=O)c1ccccc1Cl)c1nnc(-c2cc(C)c(OCCOC)c(C)c2)s1 [Example 32, N-butyl-2-chloro-N-{5-[4-(2-methoxyethoxy)-3,5-dimethylphenyl]-1,3,4-thiadiazol-2-yl}benzamide] | 64.2 nM |
| COc1c(C)cc(-c2nnc(N(CC3CC3)C(=O)c3ccccc3F)s2)cc1C [Example 46, N-(cyclopropylmethyl)-2-fluoro-N-[5-(4-methoxy-3,5-dimethylphenyl)-1,3,4-thiadiazol-2-yl]benzamide] | 36 nM |
| CCCCN(C(=O)c1ccccc1F)c1nnc(-c2ccc(OC)nc2)s1 [Example 48, N-butyl-2-fluoro-N-(5-(6-methoxypyridin-3-yl)-1,3,4-thiadiazol-2-yl)benzamide] | 116 nM |
| CCCCN(C(=O)c1ccccc1F)c1nnc(-c2ccc3nccn3c2)s1 [Example 49, N-butyl-2-fluoro-N-(5-(imidazo[1,2-a]pyridin-6-yl)-1,3,4-thiadiazol-2-yl)benzamide] | 88.7 nM |
| CCCCN(C(=O)c1ccccc1Cl)c1nnc(-c2ccc(C(N)=O)cc2)s1 [Example 53, N-butyl-N-(5-(4-carbamoylphenyl)-1,3,4-thiadiazol-2-yl)-2-chlorobenzamide] | 46.3 nM |
| CCCCN(C(=O)c1ccccc1F)c1nnc(-c2ccc(C(=O)NCCC(=O)O)cc2)s1 [Example 69, N-(4-{5-[Butyl(2-fluorobenzoyl)amino]-1,3,4-thiadiazol-2-yl}benzoyl)-beta-alanine] | 55 nM |
| CCN(C(=O)c1cccc(Cl)c1F)c1nnc(-c2ccc(CN3CC(C(=O)O)C3)cc2)s1 [Example 108, 1-(4-{5-[(3-Chloro-2-fluorobenzoyl)(ethyl)amino]-1,3,4-thiadiazol-2-yl}benzyl)-azetidine-3-carboxylic acid] | 7 nM |

These reach a lower EC50. Values come first.

| EC50 | Structure (SMILES) |
| --- | --- |
| 4.42 nM | CCCCN(C(=O)c1ccccc1Cl)c1nnc(-c2ccc(CN3CCC(C(=O)O)CC3)cc2C)s1 [Example 118, 1-(4-{5-[Butyl(2-chlorobenzoyl)amino]-1,3,4-thiadiazol-2-yl}-3-methylbenzyl)-piperidine-4-carboxylic acid] |
| 4.4 nM | CCCCN(C(=O)c1ccccc1F)c1nnc(-c2cc(C)c(OC)c(C)c2)s1 [Example 9, N-butyl-2-fluoro-N-[5-(4-methoxy-3,5-dimethylphenyl)-1,3,4-thiadiazol-2-yl]benzamide] |
| 3.8 nM | CCCCN(C(=O)c1ccccc1Cl)c1nnc(-c2cc(C)nc(Cl)c2)s1 [Example 39, N-Butyl-2-chloro-N-[5-(2-chloro-6-methylpyridin-4-yl)-1,3,4-thiadiazol-2-yl]benzamide] |
| 3.4 nM | CCCCN(C(=O)c1ccccc1Cl)c1nnc(-c2cc(Cl)nc(OC)c2)s1 [Example 31, N-Butyl-2-chloro-N-[5-(2-chloro-6-methoxypyridin-4-yl)-1,3,4-thiadiazol-2-yl]benzamide] |
| 2 nM | CCCCN(C(=O)c1ccccc1F)c1nnc(-c2ccc(CN3CCC(C(=O)O)C3)cc2C)s1 (stereo not drawn) [Example 97, 1-(4-{5-[Butyl(2-fluorobenzoyl)amino]-1,3,4-thiadiazol-2-yl}-3-methylbenzyl)-pyrrolidine-3-carboxylic acid] |
| 1.52 nM | CCCCN(C(=O)c1ccccc1F)c1nnc(-c2cc(C)c(OCC(O)CN)c(C)c2)s1 (stereo not drawn) [Example 113, N-{5-[4-(3-Amino-2-hydroxypropoxy)-3,5-dimethylphenyl]-1,3,4-thiadiazol-2-yl}-N-butyl-2-fluorobenzamide] |
| 1.4 nM | CCCCN(C(=O)Cc1ccccc1F)c1nnc(-c2ccc(CN3CC(C(=O)O)C3)cc2)s1 [Example 87, 1-[4-(5-{Butyl[(2-fluorophenyl)acetyl]amino}-1,3,4-thiadiazol-2-yl)benzyl]azetidine-3-carboxylic acid] |
| 0.45 nM | CCCCN(C(=O)c1ccccc1F)c1nnc(-c2cc(C)c(OCCN)c(C)c2)s1 [Example 105, N-{5-[4-(2-Aminoethoxy)-3,5-dimethylphenyl]-1,3,4-thiadiazol-2-yl}-N-butyl-2-fluorobenzamide] |
| 0.15 nM | CCCCN(C(=O)c1cccc(Cl)c1F)c1nnc(-c2cc(C)c(OCC(O)CO)c(C)c2)s1 (stereo not drawn) [Example 111, N-Butyl-3-chloro-N-{5-[4-(2,3-dihydroxypropoxy)-3,5-dimethylphenyl]-1,3,4-thiadiazol-2-yl}-2-fluorobenzamide] |
